Paper PMC9116130 (Biochemical pharmacology, 2020)
Where a SMILES comes first, the peptide text is derived from it. Bridges are numbered along the chain shown (N, C = ends).

Experiments:
rNaV1.8 = rNaV1.8 (Rattus norvegicus, UniProt Q62968); assay: Two-electrode voltage-clamp on Xenopus laevis oocytes expressing NaV1.8; conditions: for inhibition at 100 µM: read-out: Maximum % inhibition NaV1.8
mNaV1.6 = mNaV1.6 (Mus musculus, UniProt Q9WTU3); assay: Two-electrode voltage-clamp on Xenopus laevis oocytes expressing NaV1.6; conditions: for inhibition at 100 µM: read-out: Maximum % inhibition NaV1.6, peptide at 100 μM
hNaV1.5 = hNaV1.5 (Homo sapiens, UniProt Q14524); assay: Two-electrode voltage-clamp on Xenopus laevis oocytes expressing NaV1.5; conditions: for inhibition at 100 µM: read-out: Maximum % inhibition NaV1.5
hNaV1.5, sequence (Q14524 whole entry): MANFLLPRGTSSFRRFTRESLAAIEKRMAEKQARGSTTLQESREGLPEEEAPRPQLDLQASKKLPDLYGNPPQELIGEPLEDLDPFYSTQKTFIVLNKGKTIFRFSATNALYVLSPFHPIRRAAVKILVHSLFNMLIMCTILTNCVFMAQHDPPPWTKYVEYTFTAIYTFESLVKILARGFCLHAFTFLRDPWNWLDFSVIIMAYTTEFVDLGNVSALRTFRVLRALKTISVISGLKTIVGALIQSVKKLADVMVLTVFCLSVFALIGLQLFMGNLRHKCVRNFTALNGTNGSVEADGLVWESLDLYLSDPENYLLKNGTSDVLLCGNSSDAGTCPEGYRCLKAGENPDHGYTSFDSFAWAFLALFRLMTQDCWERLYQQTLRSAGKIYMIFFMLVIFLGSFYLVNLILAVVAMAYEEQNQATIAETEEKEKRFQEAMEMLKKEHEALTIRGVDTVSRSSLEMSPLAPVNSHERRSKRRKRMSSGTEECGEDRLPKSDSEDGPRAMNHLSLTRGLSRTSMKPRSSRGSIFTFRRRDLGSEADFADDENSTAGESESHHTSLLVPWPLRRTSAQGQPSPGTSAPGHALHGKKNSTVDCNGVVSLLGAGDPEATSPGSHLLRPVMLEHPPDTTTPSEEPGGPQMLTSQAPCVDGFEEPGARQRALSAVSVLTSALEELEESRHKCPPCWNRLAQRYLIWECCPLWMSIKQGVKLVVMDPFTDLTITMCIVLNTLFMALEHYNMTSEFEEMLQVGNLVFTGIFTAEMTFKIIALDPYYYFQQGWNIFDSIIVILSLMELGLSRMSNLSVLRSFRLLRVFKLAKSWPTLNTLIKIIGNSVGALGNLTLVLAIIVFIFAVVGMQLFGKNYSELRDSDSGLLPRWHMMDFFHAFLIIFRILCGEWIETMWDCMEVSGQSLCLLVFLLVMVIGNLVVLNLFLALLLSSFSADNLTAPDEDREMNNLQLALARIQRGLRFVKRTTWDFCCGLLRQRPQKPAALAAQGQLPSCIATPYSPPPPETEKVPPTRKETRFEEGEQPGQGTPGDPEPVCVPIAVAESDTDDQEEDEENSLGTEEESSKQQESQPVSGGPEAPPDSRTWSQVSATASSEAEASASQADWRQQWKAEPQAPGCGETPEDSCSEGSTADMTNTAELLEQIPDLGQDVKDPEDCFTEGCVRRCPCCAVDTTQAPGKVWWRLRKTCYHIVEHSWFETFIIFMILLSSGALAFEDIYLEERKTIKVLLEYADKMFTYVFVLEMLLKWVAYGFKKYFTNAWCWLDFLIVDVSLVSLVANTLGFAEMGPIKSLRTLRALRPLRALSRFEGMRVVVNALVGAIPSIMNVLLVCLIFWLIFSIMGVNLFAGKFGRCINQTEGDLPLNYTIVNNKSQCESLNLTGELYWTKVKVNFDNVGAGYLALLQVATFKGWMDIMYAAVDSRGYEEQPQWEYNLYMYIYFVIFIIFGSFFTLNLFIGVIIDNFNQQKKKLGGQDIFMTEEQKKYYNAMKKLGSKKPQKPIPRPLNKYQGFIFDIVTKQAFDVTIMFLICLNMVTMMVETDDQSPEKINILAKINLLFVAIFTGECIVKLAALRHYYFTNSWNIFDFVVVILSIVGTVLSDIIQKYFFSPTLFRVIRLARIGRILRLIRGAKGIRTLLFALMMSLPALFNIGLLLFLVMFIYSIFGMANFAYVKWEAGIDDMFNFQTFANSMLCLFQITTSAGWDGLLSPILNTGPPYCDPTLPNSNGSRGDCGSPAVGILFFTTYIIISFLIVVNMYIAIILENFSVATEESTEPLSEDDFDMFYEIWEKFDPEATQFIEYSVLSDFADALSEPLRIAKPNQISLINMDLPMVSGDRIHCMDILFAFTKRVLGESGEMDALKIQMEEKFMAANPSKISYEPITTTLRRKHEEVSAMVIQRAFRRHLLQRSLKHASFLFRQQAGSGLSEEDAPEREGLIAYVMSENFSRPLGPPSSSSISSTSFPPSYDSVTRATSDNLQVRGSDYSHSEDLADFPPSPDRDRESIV

rNaV1.4 = rNaV1.4 (Rattus norvegicus, UniProt P15390); assay: Two-electrode voltage-clamp on Xenopus laevis oocytes expressing NaV1.4; conditions: for inhibition at 100 µM: read-out: Maximum % inhibition NaV1.4, peptide at 100 μM; for Maximum % inhibition NaV1.4: peptide at 100 μM, 100 µM
rNaV1.2 = rNaV1.2 (Rattus norvegicus, UniProt P04775); assay: Two-electrode voltage-clamp on Xenopus laevis oocytes expressing NaV1.2; conditions: for inhibition at 100 µM: read-out: Maximum % inhibition NaV1.2, peptide at 100 μM

rNaV1.8, sequence (Q62968 whole entry): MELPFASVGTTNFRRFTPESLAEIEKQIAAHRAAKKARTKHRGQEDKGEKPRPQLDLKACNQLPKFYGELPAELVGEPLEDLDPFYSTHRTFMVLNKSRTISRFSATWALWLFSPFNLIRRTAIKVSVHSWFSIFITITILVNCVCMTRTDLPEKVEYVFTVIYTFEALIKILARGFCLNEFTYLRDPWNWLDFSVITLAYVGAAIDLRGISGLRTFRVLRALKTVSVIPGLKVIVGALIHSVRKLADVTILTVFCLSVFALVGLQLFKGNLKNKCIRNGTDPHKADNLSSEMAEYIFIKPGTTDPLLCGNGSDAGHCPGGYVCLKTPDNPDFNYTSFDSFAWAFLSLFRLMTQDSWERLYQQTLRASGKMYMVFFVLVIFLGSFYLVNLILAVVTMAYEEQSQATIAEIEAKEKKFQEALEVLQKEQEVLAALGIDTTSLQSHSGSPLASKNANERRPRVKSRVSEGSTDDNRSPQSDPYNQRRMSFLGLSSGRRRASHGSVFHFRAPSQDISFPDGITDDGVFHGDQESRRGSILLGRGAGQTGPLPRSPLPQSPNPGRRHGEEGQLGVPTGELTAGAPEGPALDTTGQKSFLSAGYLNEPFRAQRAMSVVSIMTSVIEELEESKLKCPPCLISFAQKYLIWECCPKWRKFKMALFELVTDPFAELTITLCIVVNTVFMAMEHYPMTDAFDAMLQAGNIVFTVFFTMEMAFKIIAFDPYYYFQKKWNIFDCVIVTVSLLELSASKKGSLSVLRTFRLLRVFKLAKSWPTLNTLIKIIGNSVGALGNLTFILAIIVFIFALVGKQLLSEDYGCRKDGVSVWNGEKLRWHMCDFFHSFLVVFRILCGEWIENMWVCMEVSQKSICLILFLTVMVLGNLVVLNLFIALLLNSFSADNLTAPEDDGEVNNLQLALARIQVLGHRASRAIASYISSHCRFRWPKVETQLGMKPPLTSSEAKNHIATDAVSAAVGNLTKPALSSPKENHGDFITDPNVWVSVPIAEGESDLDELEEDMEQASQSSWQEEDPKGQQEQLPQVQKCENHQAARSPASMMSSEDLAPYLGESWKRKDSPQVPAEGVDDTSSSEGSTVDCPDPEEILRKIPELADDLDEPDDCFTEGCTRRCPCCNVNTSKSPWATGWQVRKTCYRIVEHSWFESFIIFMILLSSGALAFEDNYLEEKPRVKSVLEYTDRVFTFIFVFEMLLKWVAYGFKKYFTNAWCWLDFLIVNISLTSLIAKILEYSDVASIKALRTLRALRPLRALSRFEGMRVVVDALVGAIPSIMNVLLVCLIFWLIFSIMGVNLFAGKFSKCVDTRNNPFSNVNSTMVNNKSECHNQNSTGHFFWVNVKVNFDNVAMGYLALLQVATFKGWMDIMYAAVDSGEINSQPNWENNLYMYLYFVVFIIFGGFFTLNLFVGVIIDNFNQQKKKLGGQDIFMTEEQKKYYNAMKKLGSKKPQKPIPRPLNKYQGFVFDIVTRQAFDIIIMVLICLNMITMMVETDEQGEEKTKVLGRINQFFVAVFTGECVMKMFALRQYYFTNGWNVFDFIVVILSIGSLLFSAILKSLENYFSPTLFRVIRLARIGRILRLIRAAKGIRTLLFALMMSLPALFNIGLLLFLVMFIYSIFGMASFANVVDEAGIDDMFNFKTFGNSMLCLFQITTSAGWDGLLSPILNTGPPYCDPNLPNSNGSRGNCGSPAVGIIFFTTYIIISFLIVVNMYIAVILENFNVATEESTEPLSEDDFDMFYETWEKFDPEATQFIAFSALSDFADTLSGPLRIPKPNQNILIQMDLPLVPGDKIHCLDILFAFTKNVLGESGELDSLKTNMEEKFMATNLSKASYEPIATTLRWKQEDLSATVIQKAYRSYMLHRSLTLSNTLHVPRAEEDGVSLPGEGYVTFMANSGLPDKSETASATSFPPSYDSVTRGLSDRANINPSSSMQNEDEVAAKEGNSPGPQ

Work on C[C@@H]1NC(=O)[C@H](Cc2c[nH]c3ccccc23)NC(=O)[C@H](CCCCN)NC(=O)[C@H](CCCNC(=N)N)NC(=O)[C@@H](N)CSSC[C@@H](C(N)=O)NC(=O)[C@H](CCCNC(=N)N)NC(=O)[C@H](CC(N)=O)NC(=O)[C@H](Cc2c[nH]c3ccccc23)NC(=O)[C@H](CCCNC(=N)N)NC1=O [PnCS1[R3K], CRKWARWNRC ^*] (H-CRKWARWNRC-NH2; disulfide 1-10) yielded an IC50 (rNaV1.8) greater than 100 µM, an inhibition at 100 µM (rNaV1.8) of 0% and an IC50 (mNaV1.6) of 0.8 ± 0.3 µM. The inhibition at 100 µM (mNaV1.6) was 86%, the IC50 (hNaV1.5) was 2.7 ± 0.6 µM and the inhibition at 100 µM (hNaV1.5) was 94%. It also gave an IC50 (rNaV1.4) of 0.6 ± 0.3 µM, an inhibition at 100 µM (rNaV1.4) of 92% and an IC50 (rNaV1.2) of 0.8 ± 0.3 µM. The “Maximum % inhibition NaV1.2” value (rNaV1.2; peptide at 100 μM, 100 µM) was 96% and the inhibition at 100 µM (rNaV1.2) was greater than 95%.

Compound C[C@@H]1NC(=O)[C@H](C)NC(=O)[C@H](Cc2c[nH]c3ccccc23)NC(=O)[C@H](CCCNC(=N)N)NC(=O)[C@H](CCCNC(=N)N)NC(=O)[C@@H](N)CSSC[C@@H](C(N)=O)NC(=O)[C@H](CCCNC(=N)N)NC(=O)[C@H](CC(N)=O)NC(=O)[C@H](Cc2c[nH]c3ccccc23)NC1=O [PnCS1[R6A], CRRWAAWNRC ^*] (H-CRRWAAWNRC-NH2; disulfide 1-10) has an IC50 (rNaV1.8) greater than 100 µM, an inhibition at 100 µM (rNaV1.8) of 0% and an IC50 (mNaV1.6) of 0.9 ± 0.2 µM. For the same compound, the “Maximum % inhibition NaV1.6” value (mNaV1.6; peptide at 100 μM, 100 µM) was 96%, the inhibition at 100 µM (mNaV1.6) was greater than 95% and the IC50 (hNaV1.5) was 7.6 ± 2.2 µM. For the same compound, the inhibition at 100 µM (hNaV1.5) was 78%, the IC50 (rNaV1.4) was 0.5 ± 0.2 µM and the “Maximum % inhibition NaV1.4” value (rNaV1.4) was 90%. For the same compound, the inhibition at 100 µM (rNaV1.4) was greater than 95%, the IC50 (rNaV1.2) was 9.2 ± 1.1 µM and the inhibition at 100 µM (rNaV1.2) was 73%.

Work on C[C@@H]1NC(=O)[C@H](Cc2c[nH]c3ccccc23)NC(=O)[C@H](CCCNC(=N)N)NC(=O)[C@H](CCCNC(=N)N)NC(=O)[C@@H](N)CSSC[C@@H](C(N)=O)NC(=O)[C@H](CCCNC(=N)N)NC(=O)[C@H](CC(N)=O)NC(=O)[C@H](Cc2c[nH]c3ccccc23)NC(=O)[C@H](CCCCN)NC1=O [PnCS1[R6K], CRRWAKWNRC ^*] (H-CRRWAKWNRC-NH2; disulfide 1-10) yielded an IC50 (rNaV1.8) greater than 100 µM, an inhibition at 100 µM (rNaV1.8) of 0% and an IC50 (mNaV1.6) of 0.9 ± 0.3 µM. The inhibition at 100 µM (mNaV1.6) was 88%, the IC50 (hNaV1.5) was 3.3 ± 1.5 µM and the inhibition at 100 µM (hNaV1.5) was 89%. For the same compound, the IC50 (rNaV1.4) was 0.6 ± 0.4 µM, the inhibition at 100 µM (rNaV1.4) was 94% and the IC50 (rNaV1.2) was 8.7 ± 2.4 µM. For the same compound, the inhibition at 100 µM (rNaV1.2) was 67%.

For C[C@@H]1NC(=O)[C@H](CC(N)=O)NC(=O)[C@H](Cc2c[nH]c3ccccc23)NC(=O)[C@H](CCCNC(=N)N)NC(=O)[C@H](C)NC(=O)[C@H](Cc2c[nH]c3ccccc23)NC(=O)[C@H](CCCNC(=N)N)NC(=O)[C@H](CCCNC(=N)N)NC(=O)[C@@H](N)CSSC[C@@H](C(N)=O)NC1=O [PnCS1[R9A], CRRWARWNAC ^*] (H-CRRWARWNAC-NH2; disulfide 1-10), the IC50 (rNaV1.8) was greater than 100 µM, the inhibition at 100 µM (rNaV1.8) was 0% and the IC50 (mNaV1.6) was 0.9 ± 0.4 µM. For the same compound, the inhibition at 100 µM (mNaV1.6) was 79%, the IC50 (hNaV1.5) was 9.2 ± 4.6 µM and the inhibition at 100 µM (hNaV1.5) was 72%. For the same compound, the IC50 (rNaV1.4) was 1.1 ± 0.3 µM, the inhibition at 100 µM (rNaV1.4) was 86% and the IC50 (rNaV1.2) was 6.7 ± 1.2 µM. For the same compound, the inhibition at 100 µM (rNaV1.2) was 80%.

C[C@@H]1NC(=O)[C@H](Cc2c[nH]c3ccccc23)NC(=O)[C@H](CCCNC(=N)N)NC(=O)[C@H](CCCNC(=N)N)NC(=O)[C@@H](N)CSSC[C@@H](C(N)=O)NC(=O)[C@H](CCC(=O)O)NC(=O)[C@H](CC(N)=O)NC(=O)[C@H](Cc2c[nH]c3ccccc23)NC(=O)[C@H](CCCNC(=N)N)NC1=O [PnCS1[R9E], CRRWARWNEC ^*] (H-CRRWARWNEC-NH2; disulfide 1-10) was tested, and the IC50 (rNaV1.8) was greater than 100 µM, the inhibition at 100 µM (rNaV1.8) was 0% and the IC50 (mNaV1.6) was greater than 100 µM. The inhibition at 100 µM (mNaV1.6) was 11%, the IC50 (hNaV1.5) was greater than 100 µM and the inhibition at 100 µM (hNaV1.5) was 40%. For the same compound, the IC50 (rNaV1.4) was greater than 100 µM, the inhibition at 100 µM (rNaV1.4) was 0% and the IC50 (rNaV1.2) was greater than 100 µM. The inhibition at 100 µM (rNaV1.2) was 49%.

C[C@@H]1NC(=O)[C@H](Cc2c[nH]c3ccccc23)NC(=O)[C@H](CCCNC(=N)N)NC(=O)[C@H](CCCNC(=N)N)NC(=O)[C@@H](N)CSSC[C@@H](C(N)=O)NC(=O)[C@H](CCCCN)NC(=O)[C@H](CC(N)=O)NC(=O)[C@H](Cc2c[nH]c3ccccc23)NC(=O)[C@H](CCCNC(=N)N)NC1=O [PnCS1[R9K], CRRWARWNKC ^*] (H-CRRWARWNKC-NH2; disulfide 1-10) was tested, and the IC50 (rNaV1.8) was greater than 100 µM, the inhibition at 100 µM (rNaV1.8) was 0% and the IC50 (mNaV1.6) was 6.7 ± 0.8 µM. For the same compound, the inhibition at 100 µM (mNaV1.6) was 72%, the IC50 (hNaV1.5) was 9.2 ± 0.6 µM and the inhibition at 100 µM (hNaV1.5) was 67%. For the same compound, the IC50 (rNaV1.4) was 6.1 ± 2.1 µM, the inhibition at 100 µM (rNaV1.4) was 66% and the IC50 (rNaV1.2) was 10.2 ± 4.3 µM. The inhibition at 100 µM (rNaV1.2) was 62%.

Compound C[C@@H]1NC(=O)[C@H](C)NC(=O)[C@H](CCCNC(=N)N)NC(=O)[C@H](CCCNC(=N)N)NC(=O)[C@@H](N)CSSC[C@@H](C(N)=O)NC(=O)[C@H](CCCNC(=N)N)NC(=O)[C@H](CC(N)=O)NC(=O)[C@H](Cc2c[nH]c3ccccc23)NC(=O)[C@H](CCCNC(=N)N)NC1=O [PnCS1[W4A], CRRAARWNRC ^*] (H-CRRAARWNRC-NH2; disulfide 1-10) has an IC50 (rNaV1.8) greater than 100 µM, an inhibition at 100 µM (rNaV1.8) of 0% and an IC50 (mNaV1.6) of 1.2 ± 0.3 µM. For the same compound, the inhibition at 100 µM (mNaV1.6) was 76%, the IC50 (hNaV1.5) was 3.4 ± 0.2 µM and the inhibition at 100 µM (hNaV1.5) was 82%. It also gave an IC50 (rNaV1.4) of 0.7 ± 0.3 µM, an inhibition at 100 µM (rNaV1.4) of 95% and an IC50 (rNaV1.2) of 0.8 ± 0.3 µM. For the same compound, the inhibition at 100 µM (rNaV1.2) was 89%.

For C[C@@H]1NC(=O)[C@H](CCC(=O)O)NC(=O)[C@H](CCCNC(=N)N)NC(=O)[C@H](CCCNC(=N)N)NC(=O)[C@@H](N)CSSC[C@@H](C(N)=O)NC(=O)[C@H](CCCNC(=N)N)NC(=O)[C@H](CC(N)=O)NC(=O)[C@H](Cc2c[nH]c3ccccc23)NC(=O)[C@H](CCCNC(=N)N)NC1=O [PnCS1[W4E], CRREARWNRC ^*] (H-CRREARWNRC-NH2; disulfide 1-10), the IC50 (rNaV1.8) was greater than 100 µM, the inhibition at 100 µM (rNaV1.8) was 0% and the IC50 (mNaV1.6) was 14.8 ± 3.9 µM. For the same compound, the inhibition at 100 µM (mNaV1.6) was 67%, the IC50 (hNaV1.5) was greater than 100 µM and the inhibition at 100 µM (hNaV1.5) was 34%. For the same compound, the IC50 (rNaV1.4) was 12.8 ± 4.1 µM, the inhibition at 100 µM (rNaV1.4) was 59% and the IC50 (rNaV1.2) was 13.2 ± 5.2 µM. For the same compound, the inhibition at 100 µM (rNaV1.2) was 72%.

C[C@@H]1NC(=O)[C@H](CCCNC(=N)N)NC(=O)[C@H](C)NC(=O)[C@H](Cc2c[nH]c3ccccc23)NC(=O)[C@H](CCCNC(=N)N)NC(=O)[C@H](CCCNC(=N)N)NC(=O)[C@@H](N)CSSC[C@@H](C(N)=O)NC(=O)[C@H](CCCNC(=N)N)NC(=O)[C@H](CC(N)=O)NC1=O [PnCS1[W7A], CRRWARANRC ^*] (H-CRRWARANRC-NH2; disulfide 1-10) was tested, and the IC50 (rNaV1.8) was greater than 100 µM, the inhibition at 100 µM (rNaV1.8) was 0% and the IC50 (mNaV1.6) was 11.4 ± 3.6 µM. For the same compound, the inhibition at 100 µM (mNaV1.6) was 57%, the IC50 (hNaV1.5) was 6.8 ± 1.3 µM and the inhibition at 100 µM (hNaV1.5) was 78%. The IC50 (rNaV1.4) was 1.1 ± 0.4 µM, the “Maximum % inhibition NaV1.4” value (rNaV1.4) was 96% and the inhibition at 100 µM (rNaV1.4) was greater than 95%. For the same compound, the IC50 (rNaV1.2) was 0.8 ± 0.3 µM and the inhibition at 100 µM (rNaV1.2) was 92%.

C[C@@H]1NC(=O)[C@H](Cc2c[nH]c3ccccc23)NC(=O)[C@H](CCCNC(=N)N)NC(=O)[C@H](CCCNC(=N)N)NC(=O)[C@@H](N)CSSC[C@@H](C(N)=O)NC(=O)[C@H](CCCNC(=N)N)NC(=O)[C@H](CC(N)=O)NC(=O)[C@H](CCC(=O)O)NC(=O)[C@H](CCCNC(=N)N)NC1=O [PnCS1[W7E], CRRWARENRC ^*] (H-CRRWARENRC-NH2; disulfide 1-10) gave an IC50 (rNaV1.8) greater than 100 µM, an inhibition at 100 µM (rNaV1.8) of 0% and an IC50 (mNaV1.6) greater than 100 µM. The inhibition at 100 µM (mNaV1.6) was 27%, the IC50 (hNaV1.5) was greater than 100 µM and the inhibition at 100 µM (hNaV1.5) was 33%. It also gave an IC50 (rNaV1.4) greater than 100 µM, an inhibition at 100 µM (rNaV1.4) of 42% and an IC50 (rNaV1.2) greater than 100 µM. The inhibition at 100 µM (rNaV1.2) was 21%.
